Measurements taken from the NIST ThermoML archive (doi:10.1016/j.fluid.2016.01.013).

Assay: xn = mol fraction of the nth substance listed
Conditions: for kinematic viscosity: Liquid, Surface laser light scattering (SLLS)

C=C(F)C(F)(F)F [2,3,3,3-tetrafluoro-1-propene] + FCC(F)(F)F
Conditions	kinematic viscosity [m2/s]	surface tension liquid-gas [mN/m]
293.15 K, x2 = 0.807	1.62e-07	8.25
293.2 K, x2 = 0.6018	1.61e-07	7.8
293.22 K, x2 = 0.3196	1.49e-07	7.38
303.13 K, x2 = 0.6018	1.43e-07	6.59
303.15 K, x2 = 0.807	1.47e-07	6.99
303.21 K, x2 = 0.3196	1.35e-07	6.14
313.12 K, x2 = 0.3196	1.25e-07	4.93
313.15 K, x2 = 0.6018	1.29e-07	5.41
323.1 K, x2 = 0.3196	1.15e-07	3.95
323.15 K, x2 = 0.807	1.26e-07	4.55
323.16 K, x2 = 0.6018	1.22e-07	4.24
333.12 K, x2 = 0.6018	1.12e-07	3.15
333.15 K, x2 = 0.807	1.13e-07	3.41
333.16 K, x2 = 0.3196	1.07e-07	2.87
343.14 K, x2 = 0.807	1.04e-07	2.39
343.16 K, x2 = 0.6018	1e-07	2.11
343.19 K, x2 = 0.3196	9.77e-08	1.88
353.1 K, x2 = 0.807	9.22e-08	1.31
353.16 K, x2 = 0.3196	8.7e-08	1
353.19 K, x2 = 0.6018	8.9e-08	1.17
358.15 K, x2 = 0.3196	8.36e-08	0.6
363.16 K, x2 = 0.807	8.21e-08	0.53
363.19 K, x2 = 0.6018	7.95e-08	0.37

F/C=C/C(F)(F)F [trans-1,3,3,3-tetrafluoropropene] + FCC(F)(F)F
x2 = 0.4446
Conditions	kinematic viscosity [m2/s]	surface tension liquid-gas [mN/m]
293.1 K	1.78e-07	8.89
303.16 K	1.62e-07	7.58
313.12 K	1.45e-07	6.34
323.11 K	1.3e-07	5.16
333.14 K	1.21e-07	3.98
343.14 K	1.12e-07	2.92
353.1 K	1.02e-07	1.92
363.1 K	9e-08	1.01
369.15 K	8.63e-08	0.53
